Tests used:
[1] = tested on: Control rat hepatic microsomes (CYPs); test: Inhibition of 3-ABA oxidation by CYPs in hepatic microsomes of untreated (control) rats; assay type: biochemical; settings: hepatic microsomes from control rats; inhibitor 0.01–0.1 mM, 20 min, 37 °C
Experimental: The study was conducted in accordance with the Regulations for the Care and Use of Laboratory Animals (311/1997, Ministry of Agriculture, Czech Republic), which complies with Declaration of Helsinki.

[2] = parameters: method as in Seidel et al., [2002]; settings: smoking and nonsmoking salt mining workers exposed to diesel emissions; ref Seidel et al., [2002]; cited from earlier work
[3] = tested on: rat hepatic CYP enzymes in microsomes; test: Oxidation of 3-ABA by rat hepatic microsomes, metabolites separated by HPLC; assay type: in vitro ADME; settings: NADPH, 37 °C
Experimental: (§1) The study was conducted in accordance with the Regulations for the Care and Use of Laboratory Animals (311/1997, Ministry of Agriculture, Czech Republic), which complies with Declaration of Helsinki. Microsomes from livers of ten male untreated Wistar rats and those of rats pretreated with β-NF (Sigma, UK) and PB were prepared by the procedure described previously (Stiborová et al., [2002]). Rat liver microsomes contained 0.6 nmol CYP/mg protein. Hepatic microsomes of rats treated with β-NF and PB contained 1.3 and 1.5 nmol CYP/mg proteins, respectively.
Incubation mixtures, in a final volume of 500 µl, consisted of 100 mM potassium phosphate buffer (pH 7.4), 10 mM NADPH, 0.5 mg of microsomal protein and 5–50 µM 3-ABA (dissolved in dimethyl sulfoxide, DMSO). The reaction was initiated by adding 3-ABA. Incubations with rat microsomes were carried out at 37 °C for 5–180 minutes. Control incubations were carried out either (1) without the enzymatic system (microsomes) or (2) with microsomes and 3-ABA, but without NADPH. Then, 5 µl of 1 mM phenacetine in methanol was added as an internal standard and 3-ABA and its metabolites were extracted twice with ethyl acetate (2 × 1.5 ml). The extracts were evaporated to dryness; residues were dissolved in 30 µl of methanol and subjected to reverse-phase (RP)-HPLC to evaluate the amounts of residual 3-ABA and its metabolites. […]

[4] = tested on: Hepatic microsomes from rats pretreated with Phenobarbital (CYP2B); test: Inhibition of 3-ABA oxidation by CYPs in hepatic microsomes of phenobarbital-pretreated rats; assay type: biochemical, rat; settings: inhibitor 0.01–0.1 mM, 20 min, 37 °C
Experimental: as §1
Incubation mixtures, in a final volume of 500 µl, consisted of 100 mM potassium phosphate buffer (pH 7.4), 10 mM NADPH, 0.5 mg of microsomal protein and 5–50 µM 3-ABA (dissolved in dimethyl sulfoxide, DMSO). The reaction was initiated by adding 3-ABA. Incubations with rat microsomes were carried out at 37 °C for 5–180 minutes. […]
The following chemicals were used to inhibit 3-ABA oxidation in the presence of rat hepatic microsomes: α-naphthoflavone (α-NF), which inhibits CYP1A1 and 1A2, furafylline, which inhibits CYP1A2, diamantane, an inhibitor of CYP2B, sulfophenazole, which inhibits CYP2C and diethyldithiocarbamate, which inhibits CYP2E1 (Rendic and DiCarlo, [1997]). […] After the incubation, 3-ABA and its metabolites were extracted and analyzed by HPLC as described above.

[5] = tested on: CYP1A1/2; test: Inhibition of 3-ABA oxidation by CYPs in hepatic microsomes of β-naphthoflavone-pretreated rats; assay type: biochemical; settings: male, Wistar, rat, liver microsomes from β-naphthoflavone-pretreated rats, pH 7.4, probe 3-ABA (5-50 µM), hepatic microsomes from rats pretreated with β-naphtoflavone (CYP1A1/2), inhibitor 0.01–0.1 mM, 37 °C
Experimental: The HPLC was performed with a reversed phase column (Nucleosil 100-5 C18, Macherey-Nagel, Duren, Germany, 25 cm×4.6 mm, 5 µm) proceeded by a C-18 guard column, using isocratic elution conditions of 70% methanol in distilled water with a flow rate of 0.6 ml/min.
Inhibitors were dissolved in 7.5 µl of methanol or water (in the case of diethyldithiocarbamate), to yield final concentrations of 0.01–0.1 mM in the incubation mixtures. […] After the incubation, 3-ABA and its metabolites were extracted and analyzed by HPLC as described above.

[6] = tested on: Salmonella; parameters: method as in Enya et al., [1997]; Seidel et al., [2002]; Arlt, [2005]; settings: ref Enya et al., [1997]; Seidel et al., [2002]; Arlt, [2005]; cited from earlier work
[7] = tested on: rats; parameters: method as in Seidel et al., [2002]; Arlt, [2005]; Nagy et al., [2005]; settings: intratracheal instillation, ref Seidel et al., [2002], Arlt, [2005], Nagy et al.; cited from earlier work

Compound `CCN(CC)C(=S)S` [DDTC, diethyldithiocarbamate] has an IC50 [1] of 96.8 µM.

For `Nc1ccc2c3c(cccc13)C(=O)c1ccccc1-2` [3-ABA, 3-Aminobenzanthrone], the “Concentration detected in urine” value [2] is given as 1–143 ng/24 h urine and the “Metabolites formed by oxidation in rat hepatic microsomes” value [3] is given as “up to three metabolites”.

For `Nc1ccc2ccc3cccc4ccc1c2c34` [1-aminopyrene], the “Concentration detected in urine” value [2] is given as 2–200 ng/24 h urine.

With `C1C2CC3C4CC5CC(C14)C(C2)C3C5` [Diamantane, diamantane] the IC50 [4] was 0.9 µM.

Work on `Cc1nc2c([nH]1)c(=O)n(C)c(=O)n2Cc1ccco1` [Furafylline, furafylline] yielded an IC50 at 20 min [5] of 16.6 µM.

Work on `O=c1cc(-c2ccccc2)oc2c1ccc1ccccc12` [α-naphtoflavone, α-naphthoflavone] yielded an IC50 at 20 min [5] of 10.9 µM.

In the case of `O=C1c2ccccc2-c2ccc([N+](=O)[O-])c3cccc1c23` [3-NBA, 3-nitro-7H-benz[de]anthracen-7-one], the “Mutagenic potency in the Ames Salmonella assay” value [6] is given as “extremely high mutagenic potency” and the Carcinogenicity in rats [7] is given as “carcinogenic in rats, causing lung tumours”.

— publication PMC2993481, “Rat cytochromes P450 oxidize 3-aminobenzanthrone, a human metabolite of the carcinogenic environmental pollutant 3-nitrobenzanthrone” (Interdisciplinary Toxicology, 2010)
